Results: patent US7534894B2, “Biphenyloxy-acids” (Wyeth, priority 2003, dated 2009)

Experiments:
[1] = target: T1, recombinant human plasminogen activator inhibitor-1 (PAI-1) (Homo sapiens, UniProt P05121); assay: Primary Screen for the PAI-1 Inhibition (residual tPA activity, chromogenic substrate Spectrozyme-tPA); format: biochemical; conditions: 140 nM PAI-1, 70 nM tPA, pH 6.6
T1 construct: purchased Molecular Innovations, Royal Oak, Mich
Procedure: (§1) Test compounds are dissolved in DMSO at a final concentration of 10 mM, then diluted 101× in physiologic buffer. The inhibitory assay is initiated by the addition of the test compound (1-100 μM final concentration, maximum DMSO concentration of 0.2%) in a pH 6.6 buffer containing 140 nM recombinant human plasminogen activator inhibitor-1 (PAI-1; Molecular Innovations, Royal Oak, Mich.). Following a 1 hour incubation at room temperature, 70 nM of recombinant human tissue plasminogen activator (tPA) is added, and the combination of the test compound, PAI-1 and tPA is incubated for an additional 30 minutes. Following the second incubation, Spectrozyme-tPA (American Diagnostica, Greenwich, Conn.), a chromogenic substrate for tPA, is added and absorbance read at 405 nm at 0 and 60 minutes. Relative PAI-1 inhibition is equal to the residual tPA activity in the presence of the test compound and PAI-1. Control treatments include the complete inhibition of tPA by PAI-1 at the molar ratio employed (2:1), and the absence of any effect of the test compound on tPA alone.

[2] = target: T1, recombinant human plasminogen activator inhibitor-1 (PAI-1); assay: Kinetic IC50: modification of the Primary Screen for the PAI-1 Inhibition; format: biochemical
Procedure: as §1

T1 sequence (P05121 24-402): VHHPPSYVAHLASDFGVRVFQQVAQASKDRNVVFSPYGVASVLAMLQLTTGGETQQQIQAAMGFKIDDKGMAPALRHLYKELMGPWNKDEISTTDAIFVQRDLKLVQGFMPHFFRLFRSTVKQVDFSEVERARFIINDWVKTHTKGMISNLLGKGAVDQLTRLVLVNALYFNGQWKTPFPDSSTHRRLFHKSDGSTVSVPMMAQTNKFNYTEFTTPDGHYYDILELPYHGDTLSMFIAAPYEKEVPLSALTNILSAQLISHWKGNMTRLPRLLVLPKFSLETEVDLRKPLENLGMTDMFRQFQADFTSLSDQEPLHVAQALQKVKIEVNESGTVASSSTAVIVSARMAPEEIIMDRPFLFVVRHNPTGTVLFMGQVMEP

For `O=C(O)COc1ccc(-c2ccc(CNC(=O)c3cnn(-c4ccccc4)c3C(F)(F)F)cc2)cc1` [Compound 1, ({4′-[({[1-phenyl-5-(trifluoromethyl)-1H-pyrazol-4-yl]carbonyl}amino)methyl][1,1′-biphenyl]-4-yl}oxy)acetic acid], the inhibition at 25 µM ([1]; 25 μM test compound) was 1% and the inhibition at 100 µM ([1]; 100 μM test compound) was 60%.
With `CCCc1c(C(=O)NCc2ccc(-c3ccc(OCc4nnn[nH]4)c(Br)c3)cc2)cnn1-c1ccccc1` [Compound 5, N-{[3′-bromo-4′-(H-tetraazol-5-ylmethoxy)[1,1′-biphenyl]-4-yl]methyl}-1-phenyl-5-propyl-1H-pyrazole-4-carboxamide] the “% Inhibition 25 μM” value ([1]; 25 μM test compound) was 23% and the “% Inhibition 100 μM” value ([1]; 100 μM test compound) was 73%.
`CCCCc1oc2ccccc2c1C(=O)N(Cc1ccccc1)Cc1ccc(-c2ccc(OCc3nnn[nH]3)c(Br)c2)cc1` [Compound 11, N-benzyl-N-{[3′-bromo-4′-(1H-tetraazol-5-ylmethoxy)-1,1′-biphenyl-4-yl]methyl}-2-butyl-1-benzofuran-3-carboxamide] showed an inhibition at 25 µM ([1]; 25 μM test compound) of 53%.
For `Cn1cc(C(=O)N(Cc2ccccc2)Cc2ccc(-c3ccc(OCc4nnn[nH]4)c(Br)c3)cc2)c2ccccc21` [Compound 12, N-benzyl-N-{[3′-bromo-4′-(1H-tetraazol-5-ylmethoxy)-1,1′-biphenyl-4-yl]methyl}-1-methyl-1H-indole-3-carboxamide], the inhibition at 25 µM ([1]; 25 μM test compound) was 55%.
`CCCc1ccc(-c2ccc(C(=O)Nc3ccc(-c4ccc(OC(Cc5ccccc5)C(=O)O)cc4)cc3)cc2)cc1` (stereo not drawn) [Compound 20, 3-phenyl-2-[(4′-{[(4′-propyl-1,1′-biphenyl-4-yl)carbonyl]amino}-1,1′-biphenyl-4-yl)oxy]propanoic acid] gave an inhibition at 25 µM ([1]; 25 μM test compound) of 40% and an inhibition at 100 µM ([1]; 100 μM test compound) of 66%.
For `O=C(Nc1ccc(-c2ccc(OC(Cc3ccccc3)C(=O)O)cc2)cc1)c1ccc(-c2ccc(Cl)cc2)o1` (stereo not drawn) [Compound 21, 2-[(4′-{[5-(4-chlorophenyl)-2-furoyl]amino}-1,1′-biphenyl-4-yl)oxy]-3-phenylpropanoic acid], the inhibition at 25 µM ([1]; 25 μM test compound) was 28% and the inhibition at 100 µM ([1]; 100 μM test compound) was 52%.
Work on `O=C(O)COc1ccc(-c2ccc(NC(=O)C3(c4ccc(Cl)cc4)CCCC3)cc2)cc1` [Compound 22, {[4′-({[1-(4-chlorophenyl)cyclopentyl]carbonyl}amino)-1,1′-biphenyl-4-yl]oxy}acetic acid] yielded an inhibition at 25 µM ([1]; 25 μM test compound) of 30% and an inhibition at 100 µM ([1]; 100 μM test compound) of 89%.
Compound `O=C(O)COc1ccc(-c2ccc(NC(=O)C3(c4cccc(F)c4)CCCC3)cc2)cc1` [Compound 23, {[4′-({[1-(3-fluorophenyl)cyclopentyl]carbonyl}amino)-1,1′-biphenyl-4-yl]oxy}acetic acid] has an inhibition at 25 µM ([1]; 25 μM test compound) of 3% and an inhibition at 100 µM ([1]; 100 μM test compound) of 77%.
For `O=C(Nc1ccc(-c2cccc(OC(Cc3ccccc3)C(=O)O)c2)cc1)c1cccc2c1-c1ccccc1C2` (stereo not drawn) [Compound 24, 2-({4′-[(9H-fluoren-4-ylcarbonyl)amino]-1,1′-biphenyl-3-yl}oxy)-3-phenylpropanoic acid], the inhibition at 25 µM ([1]; 25 μM test compound) was 36%, the inhibition at 100 µM ([1]; 100 μM test compound) was 51% and the IC50 [2] was 12.1 µM.
In the case of `O=C(O)C(Cc1ccccc1)Oc1cccc(-c2ccc(NC(=O)C3(c4ccccc4)CCCC3)cc2)c1` (stereo not drawn) [Compound 25, 3-phenyl-2-[(4′-{[(1-phenylcyclopentyl)carbonyl]amino}-1,1′-biphenyl-3-yl)oxy]propanoic acid], the inhibition at 25 µM ([1]; 25 μM test compound) is reported as 26%, the inhibition at 100 µM ([1]; 100 μM test compound) is reported as 74% and the IC50 [2] is reported as 40.8 µM.
`O=C(O)C(Cc1ccccc1)Oc1cccc(-c2ccc(NC(=O)C3(c4ccc(Cl)cc4)CCCC3)cc2)c1` (stereo not drawn) [Compound 26, 2-{[4′-({[1-(4-chlorophenyl)cyclopentyl]carbonyl}amino)-1,1′-biphenyl-3-yl]oxy}-3-phenylpropanoic acid] was tested, and the inhibition at 25 µM ([1]; 25 μM test compound) was 58%, the inhibition at 100 µM ([1]; 100 μM test compound) was 69% and the IC50 [2] was 16.4 µM.
For `CCCc1c(C(=O)Nc2ccc(-c3cccc(OC(Cc4ccccc4)C(=O)O)c3)cc2)cnn1-c1ccc(Cl)cc1` (stereo not drawn) [Compound 27, 2-{[4′-({[1-(4-chlorophenyl)-5-propyl-1H-pyrazol-4-yl]carbonyl}amino)-1,1′-biphenyl-3-yl]oxy}-3-phenylpropanoic acid], the inhibition at 25 µM ([1]; 25 μM test compound) was 20%, the inhibition at 100 µM ([1]; 100 μM test compound) was 63% and the IC50 [2] was 7.8 µM.
Work on `O=C(Nc1ccc(-c2cccc(OC(Cc3ccccc3)C(=O)O)c2)cc1)c1cc2cc(OCc3ccccc3)ccc2[nH]1` (stereo not drawn) [Compound 28, 2-{[4′-({[5-(benzyloxy)-1H-indol-2-yl]carbonyl}amino)-1,1′-biphenyl-3-yl]oxy}-3-phenylpropanoic acid] yielded an inhibition at 25 µM ([1]; 25 μM test compound) of 27%, an inhibition at 100 µM ([1]; 100 μM test compound) of 70% and an IC50 [2] of 7.41 µM.
`O=C(O)C(Cc1ccccc1)Oc1cccc(-c2ccc(NC(=O)C3(c4ccc(Cl)cc4)CC3)cc2)c1` (stereo not drawn) [Compound 29, 2-{[4′-({[1-(4-chlorophenyl)cyclopropyl]carbonyl}amino)-1,1′-biphenyl-3-yl]oxy}-3-phenylpropanoic acid] gave an inhibition at 25 µM ([1]; 25 μM test compound) of 31%, an inhibition at 100 µM ([1]; 100 μM test compound) of 83% and an IC50 [2] of 31.2 µM.
`O=C(O)C(Cc1ccccc1)Oc1cccc(-c2ccc(NC(=O)C3(c4cccc(F)c4)CCCC3)cc2)c1` (stereo not drawn) [Compound 30, 2-{[4′-({[1-(3-fluorophenyl)cyclopentyl]carbonyl}amino)-1,1′-biphenyl-3-yl]oxy}-3-phenylpropanoic acid] showed an inhibition at 25 µM ([1]; 25 μM test compound) of 23%, an inhibition at 100 µM ([1]; 100 μM test compound) of 73% and an IC50 [2] of 17.4 µM.
Work on `O=C(O)C(Cc1ccccc1)Oc1ccc(-c2ccc(NC(=O)C3(c4ccccc4)CCCC3)cc2)cc1` (stereo not drawn) [Compound 31, 3-phenyl-2-[(4′-{[(1-phenylcyclopentyl)carbonyl]amino}-1,1′-biphenyl-4-yl)oxy]Propanoic acid] yielded an inhibition at 25 µM ([1]; 25 μM test compound) of 24%, an inhibition at 100 µM ([1]; 100 μM test compound) of 51% and an IC50 [2] of 31.1 µM.
For `O=C(O)C(Cc1ccccc1)Oc1ccc(-c2ccc(NC(=O)C3(c4ccccc4)CC3)cc2)cc1` (stereo not drawn) [Compound 32, 3-phenyl-2-[(4′-{[(1-phenylcyclopropyl)carbonyl]amino}-1,1′-biphenyl-4-yl)oxy]Propanoic acid], the inhibition at 25 µM ([1]; 25 μM test compound) was 15%, the inhibition at 100 µM ([1]; 100 μM test compound) was 78% and the IC50 [2] was 4.04 µM.
Compound `O=C(O)C(Cc1ccccc1)Oc1ccc(-c2ccc(NC(=O)C3(c4ccc(Cl)cc4)CC3)cc2)cc1` (stereo not drawn) [Compound 33, 2-{[4′-({[1-(4-chlorophenyl)cyclopropyl]carbonyl}amino)-1,1′-biphenyl-4-yl]oxy}-3-phenylpropanoic acid] has an inhibition at 25 µM ([1]; 25 μM test compound) of 22%, an inhibition at 100 µM ([1]; 100 μM test compound) of 79% and an IC50 [2] of 13.9 µM.
`O=C(O)C(Cc1ccccc1)Oc1ccc(-c2ccc(NC(=O)C3(c4cccc(F)c4)CCCC3)cc2)cc1` (stereo not drawn) [Compound 34, 2-{[4′-({[1-(3-fluorophenyl)cyclopentyl]carbonyl}amino)-1,1′-biphenyl-4-yl]oxy}-3-phenylpropanoic acid] was tested, and the inhibition at 25 µM ([1]; 25 μM test compound) was 33%, the inhibition at 100 µM ([1]; 100 μM test compound) was 70% and the IC50 [2] was 38.6 µM.
`O=C(O)COc1ccc(-c2ccc(NC(=O)C3(c4ccc(Cl)cc4)CCC3)cc2)cc1` [Compound 35, {[4′-({[1-(4-chlorophenyl)cyclobutyl]carbonyl}amino)-1,1′-biphenyl-4-yl]oxy}acetic acid] gave an inhibition at 25 µM ([1]; 25 μM test compound) of 15%, an inhibition at 100 µM ([1]; 100 μM test compound) of 80% and an IC50 [2] of 39.3 µM.
For `O=C(O)C(Cc1ccccc1)Oc1cccc(-c2ccc(NC(=O)C3(c4ccc(Cl)cc4)CCCCC3)cc2)c1` (stereo not drawn) [Compound 51, 2-{[4′-({[1-(4-chlorophenyl)cyclohexyl]carbonyl}amino)-1,1′-biphenyl-3-yl]oxy}-3-phenylpropanoic acid], the inhibition at 25 µM ([1]; 25 μM test compound) was 46% and the inhibition at 100 µM ([1]; 100 μM test compound) was 60%.
`O=C(O)C(Cc1ccccc1)Oc1ccc(-c2ccc(NC(=O)C3(c4ccc(Cl)cc4)CCCC3)cc2)cc1` (stereo not drawn) [Compound 52, 2-{[4′-({[1-(4-chlorophenyl)cyclopentyl]carbonyl}amino)-1,1′-biphenyl-4-yl]oxy}-3-phenylpropanoic acid] gave an inhibition at 25 µM ([1]; 25 μM test compound) of 55% and an inhibition at 100 µM ([1]; 100 μM test compound) of 53%.
Compound `O=C(O)C(Cc1ccccc1)Oc1cccc(-c2ccc(NC(=O)C3(c4ccccc4)CC3)cc2)c1` (stereo not drawn) [Compound 53, 3-phenyl-2-[(4′-{[(1-phenylcyclopropyl)carbonyl]amino}-1,1′-biphenyl-3-yl)oxy]propanoic acid] has an inhibition at 25 µM ([1]; 25 μM test compound) of 19% and an inhibition at 100 µM ([1]; 100 μM test compound) of 52%.
With `Cc1cc(C)c2c(c1C(=O)Nc1ccc(-c3cccc(OC(Cc4ccccc4)C(=O)O)c3)cc1)CC(C)(C)C2=O` (stereo not drawn) [Compound 54, 3-phenyl-2-[(4′-{[(2,2,5,7-tetramethyl-1-oxo-2,3-dihydro-1H-inden-4-yl)carbonyl]amino}-1,1′-biphenyl-3-yl)oxy]propanoic acid] the inhibition at 25 µM ([1]; 25 μM test compound) was 29% and the inhibition at 100 µM ([1]; 100 μM test compound) was 85%.
For `O=C(Nc1ccc(-c2ccc(OC(Cc3ccccc3)C(=O)O)cc2)cc1)c1ccc2ccccc2c1` (stereo not drawn) [Compound 55, 2-{[4′-(2-naphthoylamino)-1,1′-biphenyl-4-yl]oxy}-3-phenylpropanoic acid], the inhibition at 25 µM ([1]; 25 μM test compound) was 26% and the inhibition at 100 µM ([1]; 100 μM test compound) was 53%.
In the case of `CCCCOc1ccc2cc(C(=O)Nc3ccc(-c4ccc(OC(Cc5ccccc5)C(=O)O)cc4)cc3)ccc2c1` (stereo not drawn) [Compound 56, 2-({4′-[(6-butoxy-2-naphthoyl)amino]-1,1′-biphenyl-4-yl}oxy)-3-phenylpropanoic acid], the inhibition at 100 µM ([1]; 100 μM test compound) is reported as 53%.
With `O=C(Nc1ccc(-c2ccc(OC(Cc3ccccc3)C(=O)O)cc2)cc1)c1sc2ccccc2c1Cl` (stereo not drawn) [Compound 57, 2-[(4′-{[(3-chloro-1-benzothien-2-yl)carbonyl]amino}-1,1′-biphenyl-4-yl)oxy]-3-phenylpropanoic acid] the inhibition at 25 µM ([1]; 25 μM test compound) was 34% and the inhibition at 100 µM ([1]; 100 μM test compound) was 58%.
